{"source": "patent US8785459B2", "about": "“Quinazoline compounds as kinase inhibitors” (Development Center for Biotechnology, priority 2011, dated 2014)", "key": {"EGFR kinase": {"target": "EGFR kinase (Homo sapiens (Human), UniProt P00533)", "sequence (P00533 712-979)": "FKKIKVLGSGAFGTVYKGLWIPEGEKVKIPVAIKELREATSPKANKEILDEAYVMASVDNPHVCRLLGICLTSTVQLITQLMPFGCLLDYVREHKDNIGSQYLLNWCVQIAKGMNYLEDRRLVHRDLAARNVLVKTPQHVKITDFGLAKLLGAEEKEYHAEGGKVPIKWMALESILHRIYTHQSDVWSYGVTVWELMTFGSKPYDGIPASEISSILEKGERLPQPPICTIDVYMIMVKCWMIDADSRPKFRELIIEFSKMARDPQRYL", "test": "EGFR kinase assay", "type": "biochemical", "description": "Inhibition of EGFR kinase activity by compounds disclosed herein is quantified by measuring the amount of [^33P] incorporated into the substrate in the presence of a test compound. Briefly, a reaction mixture of 25 μL final volume containing 25 ng of EGFR kinase (EGFR kinase domain alone, Millipore), 3 μg of the substrate [poly(Glu-Tyr), Sigma], kinase reaction buffer (10 mM MOPS pH 7.0, 0.3 mM EDTA, 0.5% glycerol, 0.001% Brij-35, 10 mM MnCl2, 0.1 mg/ml BSA, 100 μM ATP, 0.1 μCi per well [^33P]-γ-ATP (2,500-3,000 Ci/mmol)), and a test compound (100 nM, diluted with 4% DMSO) or DMSO (as the control) was incubated at 30° C. for 30 minutes. The reaction was stopped by adding 5 μL of 3% phosphoric acid solution. The resultant reaction solution was then harvested onto a filter plate (UniFilter-96 GF/B, PerkinElmer), washed 20 times for 5 min with d.d. H2O, and followed by the addition of 30 μL of MicroScint™-20 Cocktail (PerkinElmer). The radioactivity retained on the filter membrane was measured by TopCount™ scintillation detector (PerkinElmer). The results were analyzed by using linear regression software (GraphPad Prism™ 4; GraphPad Software Inc.). IC50 value is defined as the concentration of the test compound which achieves a half-maximal inhibition of the kinase activity."}, "FGFR1 kinase": {"target": "FGFR1 kinase (Homo sapiens (Human), UniProt P11362)", "sequence (P11362 478-767)": "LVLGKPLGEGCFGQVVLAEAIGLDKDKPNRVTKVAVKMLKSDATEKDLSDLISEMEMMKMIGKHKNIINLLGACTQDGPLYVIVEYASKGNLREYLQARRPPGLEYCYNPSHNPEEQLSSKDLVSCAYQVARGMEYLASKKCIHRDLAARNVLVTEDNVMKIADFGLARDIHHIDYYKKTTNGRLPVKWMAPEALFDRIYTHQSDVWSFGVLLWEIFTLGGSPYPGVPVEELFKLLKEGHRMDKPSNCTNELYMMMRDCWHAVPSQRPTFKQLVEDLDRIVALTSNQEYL", "test": "FGFR1 kinase assay", "type": "biochemical", "description": "Inhibition of FGFR1 kinase activity by compounds disclosed herein was quantified by measuring the amount of [^33P] incorporated into the substrate in the presence of a test compound. Briefly, a reaction mixture of 25 μL final volume containing 1 ng of FGFR1 kinase (FGFR1 kinase domain alone, Millipore), 5 μg of the substrate [poly(Glu-Tyr), Sigma], kinase reaction buffer (14 mM MOPS pH 7.0, 0.2 mM EDTA, 0.5% glycerol, 0.001% Brij-35, 0.01% β-mercaptoethanol, 0.1 mg/ml BSA, 100 μM ATP, 0.1 μCi per well [^33P]-γ-ATP (2,500-3,000 Ci/mmol)), and a test compound (100 nM, diluted with 4% DMSO) or DMSO (as the control) was incubated at 30° C. for 60 minutes. The reaction was stopped by adding 5 μL of 3% phosphoric acid solution. The resultant reaction solution was then harvested onto a filter plate (UniFilter-96 GF/B, PerkinElmer), washed 20 times for 5 min with d.d. H2O, and followed by the addition of 30 μL of MicroScint™-20 Cocktail (PerkinElmer). The radioactivity retained on the filter membrane was measured by TopCount™ scintillation detector (PerkinElmer). The results were analyzed by using linear regression software (GraphPad Prism™ 4; GraphPad Software Inc.). IC50 value is defined as the concentration of the test compound which achieves a half-maximal inhibition of the kinase activity."}, "FLT3 kinase": {"target": "FLT3 kinase (Homo sapiens (Human), UniProt P36888)", "sequence (P36888 610-943)": "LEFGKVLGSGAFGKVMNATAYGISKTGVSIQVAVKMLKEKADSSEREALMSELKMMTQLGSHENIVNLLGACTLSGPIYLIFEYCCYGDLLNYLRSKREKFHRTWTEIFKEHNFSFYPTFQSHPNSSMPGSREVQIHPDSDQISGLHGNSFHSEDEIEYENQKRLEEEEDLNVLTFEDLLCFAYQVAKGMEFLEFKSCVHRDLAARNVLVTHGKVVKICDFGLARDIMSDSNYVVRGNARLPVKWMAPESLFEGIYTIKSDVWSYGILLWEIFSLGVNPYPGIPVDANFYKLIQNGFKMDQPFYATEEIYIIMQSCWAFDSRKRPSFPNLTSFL", "test": "FLT3 kinase assay", "type": "biochemical", "description": "Inhibition of FLT3 kinase activity by compounds disclosed herein was quantified by measuring the amount of [^33P] incorporated into the substrate in the presence of a test compound. Briefly, a reaction mixture of 25 μL final volume containing 5 ng of Flt3 kinase (obtained by purifying recombinant N-terminal 6×His-tagged Flt3 kinase domain construct expressed from baculovirus), 5 μg of the substrate (Poly(Glu-Tyr, 4:1, Sigma)), kinase reaction buffer (20 mM MOPS pH 7.0, 1 mM EDTA, 5% glycerol, 0.01% Brij-35, 0.1% β-mercaptoethanol, 1 mg/mL BSA, 100 μM ATP, 0.1 μCi per well [^33P]-γ-ATP (2,500-3,000 Ci/mmol)), and a test compound (100 nM, diluted with 4% DMSO) or DMSO (as the control) was incubated at 30° C. for 30 minutes. The reaction was stopped by adding 5 μL of 3% phosphoric acid solution. The resultant reaction solution was then harvested onto a filter plate (UniFilter-96 GF/B, PerkinElmer), washed 20 times for 5 min with d.d. H2O, and followed by the addition of 30 μL of MicroScint™-20 Cocktail (PerkinElmer). The plate was then sealed and counted using a TopCount™ scintillation detector (PerkinElmer). IC50 value is defined as the concentration of the test compound which achieves a half-maximal inhibition of the kinase activity."}, "VEGFR2 kinase": {"target": "VEGFR2 kinase (Homo sapiens (Human), UniProt P35968)", "sequence (P35968 834-1162)": "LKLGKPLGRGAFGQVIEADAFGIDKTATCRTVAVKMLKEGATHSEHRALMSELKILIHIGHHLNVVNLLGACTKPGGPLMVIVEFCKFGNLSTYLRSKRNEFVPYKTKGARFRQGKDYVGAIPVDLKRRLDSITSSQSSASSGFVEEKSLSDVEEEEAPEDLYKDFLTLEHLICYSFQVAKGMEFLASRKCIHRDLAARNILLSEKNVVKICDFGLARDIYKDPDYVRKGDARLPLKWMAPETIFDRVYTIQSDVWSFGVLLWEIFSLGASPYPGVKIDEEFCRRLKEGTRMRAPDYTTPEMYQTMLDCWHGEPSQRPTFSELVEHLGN", "test": "VEGFR2 kinase assay", "type": "biochemical", "description": "Inhibition of VEGFR2 kinase activity by compounds disclosed herein was quantified by measuring the amount of [^33P] incorporated into the substrate in the presence of a test compound. […] The reaction was then stopped by adding 5 μL of 3% phosphoric acid solution. The resultant solution was transferred to and harvested by a filter plate (UniFilter-96 GF/B, PerkinElmer). The filter plate was then washed 20 times with d.d. H2O for 5 min followed by the addition of 30 μL of MicroScint™-20 Cocktail (PerkinElmer). After the plate was sealed, the retained radioactivity on the filter was counted using a TopCount™ scintillation detector (PerkinElmer). […]"}, "B-Raf": {"target": "B-Raf (Homo sapiens (Human), UniProt P15056)", "sequence (P15056 whole entry)": "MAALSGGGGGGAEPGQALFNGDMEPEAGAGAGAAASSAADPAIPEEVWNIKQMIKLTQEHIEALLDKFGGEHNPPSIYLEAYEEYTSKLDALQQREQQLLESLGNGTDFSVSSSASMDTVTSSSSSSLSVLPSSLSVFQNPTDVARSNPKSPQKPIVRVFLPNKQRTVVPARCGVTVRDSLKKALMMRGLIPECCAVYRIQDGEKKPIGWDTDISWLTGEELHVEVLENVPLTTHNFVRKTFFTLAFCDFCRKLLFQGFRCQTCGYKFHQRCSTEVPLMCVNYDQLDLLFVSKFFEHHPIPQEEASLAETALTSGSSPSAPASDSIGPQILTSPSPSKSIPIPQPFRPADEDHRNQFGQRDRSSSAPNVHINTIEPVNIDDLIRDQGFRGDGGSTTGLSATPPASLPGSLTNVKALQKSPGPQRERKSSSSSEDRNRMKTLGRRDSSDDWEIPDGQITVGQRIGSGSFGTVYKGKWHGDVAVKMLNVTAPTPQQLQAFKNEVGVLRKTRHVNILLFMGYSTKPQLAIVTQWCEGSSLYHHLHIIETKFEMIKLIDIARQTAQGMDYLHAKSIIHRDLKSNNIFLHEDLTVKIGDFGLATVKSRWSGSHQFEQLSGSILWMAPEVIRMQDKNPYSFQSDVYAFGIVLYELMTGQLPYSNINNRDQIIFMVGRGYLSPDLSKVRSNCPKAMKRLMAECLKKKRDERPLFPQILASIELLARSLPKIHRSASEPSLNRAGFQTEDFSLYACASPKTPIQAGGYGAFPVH", "test": "Raf kinase assay (B-Raf), [33P] incorporation into MEK1(K97R)", "type": "biochemical", "conditions": "for inhibition at 1 µM: 1.0 μM compound, read-out: B-Raf inhibition at 1.0 μM", "procedure,_shortened": "(§1)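 Recombinant C-Raf (2 ng) or B-Raf or B-Raf V600E (5 ng each) phosphorylated 500 ng MEK1(K97R) with 8 μM ATP plus [33P]ATP, pH 7.5, 30 min at 30 °C. Filter-captured 33P counted. IC50 from 3-fold compound dilutions run in duplicate.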"}, "C-Raf": {"target": "C-Raf (Homo sapiens (Human), UniProt P04049)", "sequence (P04049 whole entry)": "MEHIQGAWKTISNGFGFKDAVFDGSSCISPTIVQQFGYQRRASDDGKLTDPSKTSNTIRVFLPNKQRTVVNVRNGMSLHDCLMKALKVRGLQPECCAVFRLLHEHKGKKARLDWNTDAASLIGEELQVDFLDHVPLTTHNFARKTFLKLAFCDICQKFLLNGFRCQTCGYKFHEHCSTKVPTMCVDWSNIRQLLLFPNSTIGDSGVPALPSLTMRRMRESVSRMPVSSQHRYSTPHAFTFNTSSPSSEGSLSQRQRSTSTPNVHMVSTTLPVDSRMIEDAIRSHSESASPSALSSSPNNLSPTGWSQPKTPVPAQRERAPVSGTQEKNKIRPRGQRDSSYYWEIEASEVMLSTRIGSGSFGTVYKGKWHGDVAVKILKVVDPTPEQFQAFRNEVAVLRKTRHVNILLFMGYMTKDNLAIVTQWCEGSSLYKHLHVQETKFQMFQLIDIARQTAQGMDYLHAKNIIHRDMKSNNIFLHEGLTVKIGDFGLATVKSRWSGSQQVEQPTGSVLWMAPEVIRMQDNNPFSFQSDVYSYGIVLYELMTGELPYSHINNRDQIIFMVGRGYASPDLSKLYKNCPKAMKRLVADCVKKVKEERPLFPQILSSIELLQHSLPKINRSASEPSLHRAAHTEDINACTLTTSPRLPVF", "test": "Raf kinase assay (C-Raf), [33P] incorporation into MEK1(K97R)", "type": "biochemical", "procedure,_shortened": "as §1"}, "B-Raf (V600E)": {"target": "B-Raf (V600E) (Homo sapiens (Human), UniProt P15056, V600E)", "sequence (P15056 whole entry V600E)": "as the sequence (P15056 whole entry) above, with V600E counted along it", "test": "Raf kinase assay (B-Raf (V600E)), [33P] incorporation into MEK1(K97R)", "type": "biochemical", "procedure,_shortened": "as §1"}, "COLO205": {"test_system": "COLO205", "test": "Anti-proliferative activity, CellTiter-96 assay, COLO205", "type": "cell-based", "conditions": "Homo sapiens, COLO 205, COLO205 cells, 72 hours incubation", "procedure,_shortened": "(§2)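 Cells in DMEM with 10% FCS at 37° C., 5% CO2, plated at 2000 cells/well for 24 h, then exposed to graded compound concentrations for 72 h. CellTiter-96 Aqueous One reagent added for 4.0 h; viability read as absorbance at 490 nm.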"}, "A375": {"test_system": "A375", "test": "Anti-proliferative activity, CellTiter-96 assay, A375", "type": "cell-based", "conditions": "Homo sapiens, A-375, A375 cells, 72 hours incubation", "procedure,_shortened": "as §2"}, "MDA-MB-231": {"test_system": "MDA-MB-231", "test": "Anti-proliferative activity, CellTiter-96 assay, MDA-MB-231", "type": "cell-based", "conditions": "Homo sapiens, MDA-MB-231 cells, 72 hours incubation", "procedure,_shortened": "as §2"}, "A549": {"test_system": "A549", "test": "Anti-proliferative activity, CellTiter-96 assay, A549", "type": "cell-based", "conditions": "Homo sapiens, A549 cells, 72 hours incubation", "procedure,_shortened": "as §2"}}}
{"compound": "COc1cc(-c2ccc3ncnc(Nc4ccc(O)cc4)c3c2)ccc1O", "note": "[Compound 19, 4-(4-(4-hydroxyphenylamino)quinazolin-6-yl)-2-methoxyphenol]", "values": [{"measurement": "IC50", "setting": "EGFR kinase", "result": 56.4, "unit": "nM"}, {"measurement": "IC50", "setting": "FGFR1 kinase", "result": 1440, "unit": "nM"}, {"measurement": "IC50", "setting": "FLT3 kinase", "result": 146, "unit": "nM"}, {"measurement": "IC50", "setting": "VEGFR2 kinase", "result": 5400, "unit": "nM"}, {"measurement": "IC50", "setting": "B-Raf", "result": 557, "unit": "nM"}, {"measurement": "inhibition at 1 µM", "setting": "B-Raf", "result": 55.8, "unit": "%"}, {"measurement": "IC50", "setting": "C-Raf", "result": 503, "unit": "nM"}, {"measurement": "IC50", "setting": "B-Raf (V600E)", "result": 522, "unit": "nM"}]}
{"compound": "COc1cc2ncnc(Nc3cccc(O)c3)c2cc1-c1ccc(O)cc1", "note": "[Compound 49, 3-(6-(4-hydroxyphenyl)-7-methoxyquinazolin-4-ylamino)phenol]", "values": [{"measurement": "IC50", "setting": "COLO205", "result": "> 50000", "unit": "nM"}, {"measurement": "IC50", "setting": "A375", "result": "> 50000", "unit": "nM"}, {"measurement": "IC50", "setting": "B-Raf", "result": 55.3, "unit": "nM"}, {"measurement": "inhibition at 1 µM", "setting": "B-Raf", "result": 90.3, "unit": "%"}, {"measurement": "IC50", "setting": "C-Raf", "result": 790, "unit": "nM"}, {"measurement": "IC50", "setting": "MDA-MB-231", "result": "> 50000", "unit": "nM"}, {"measurement": "IC50", "setting": "B-Raf (V600E)", "result": 71.6, "unit": "nM"}, {"measurement": "IC50", "setting": "A549", "result": "> 50000", "unit": "nM"}]}
{"compound": "COc1cc(-c2ccc3ncnc(Nc4ccc(Cl)c(O)c4)c3c2)ccc1O", "note": "[Compound 157, 4-(4-(4-chloro-3-hydroxyphenylamino)quinazolin-6-yl)-2-methoxyphenol]", "values": [{"measurement": "IC50", "setting": "COLO205", "result": 7800, "unit": "nM"}, {"measurement": "IC50", "setting": "A375", "result": "2900 ± 600", "unit": "nM"}, {"measurement": "IC50", "setting": "B-Raf", "result": 26.8, "unit": "nM"}, {"measurement": "inhibition at 1 µM", "setting": "B-Raf", "result": 92, "unit": "%"}, {"measurement": "IC50", "setting": "C-Raf", "result": 161, "unit": "nM"}, {"measurement": "IC50", "setting": "MDA-MB-231", "result": "4700 ± 300", "unit": "nM"}, {"measurement": "IC50", "setting": "B-Raf (V600E)", "result": 37.5, "unit": "nM"}, {"measurement": "IC50", "setting": "A549", "result": "2500 ± 800", "unit": "nM"}]}
